Patent US20230303599A1, “PRODRUGS OF PHOSPHONAMIDE NUCLEOTIDE ANALOGUES AND THEIR PHARMACEUTICAL USE” (priority 2020, published 2023)
≈ marks a conversion by molar mass, not a printed value.

Tests used:
[1] = Cytotoxicity assay in MT-4 cells; type: cell-based; settings: human, uninfected MT-4 cells, average of at least two independent experiments, read-out: MT4 CC50
Protocol: Compounds were tested in a high-throughput 384-well assay format for their ability to inhibit the replication of HIV-1 (IIIB) in MT-4 cells. Compounds were serially diluted (1:3) in DMSO on 384-well polypropylene plates and further diluted 200-fold into complete RPMI media (10% FBS, 1% P/S) using the Biotek Micro Flow and Labcyte ECHO acoustic dispenser. Each plate contained up to 8 test compounds, with negative (no drug) and positive (5 μM AZT) controls. MT-4 cells were pre-treated with 10 μL of either RPMI (mock-infected) or a fresh 1:250 dilution of HIV-1 IIIB concentrated virus stock. Infected and uninfected MT-4 cells were further diluted in complete RPMI media and added to each plate using a Micro Flow dispenser. After 5 days incubation in a humidified and temperature-controlled incubator (37° C.), Cell Titer Glo (Promega) was added to the assay plates and chemiluminescence read using an Envision plate-reader. EC50 values were defined as the compound concentration that causes a 50% decrease in luminescence signal and were calculated using a sigmoidal dose-response model to generate curve fits and are shown in Table 1.
Example 105: Cytotoxicity Assay in MT-4 Cells
Assays were performed as described in Example 104 except uninfected MT-4 cells were added to each well containing test compound. In addition, 10 μM puromycin was added to the last column of each assay plate to assess a base level of cytotoxicity.

[2] = Cytotoxicity assay in primary human hepatocytes (PHHs); type: cell-based; settings: HBV-infected primary human hepatocytes, HBV-infected PHH, Cell Titer Glo, average of at least two independent experiments
Protocol: Example 107: Cytotoxicity Assay in Primary Human Hepatocytes (PHHs)
The HBV-infected primary human hepatocytes are seeded (20K cells/well in 80 uL of Media) in 384well collagen coated plates pre-spotted with compounds. After 5 days, 40 ul of cell supernatant is removed to quantify HBV DNA levels as described in Example 106. Then, 40 ul Cell Titer Glo Reagent (Promega Catalog Number: G7572) is added to the remaining cells and luminescence is measured on the EnVision microplate reader.

[3] = Kinetic solubility analysis; type: physicochemical; settings: 1× PBS, 24.2 °C, aqueous buffer, kinetic from dmso stock; pH 7.4 PBS, 1% DMSO, 24-hour incubation at ambient temperature
How it was run: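 Compounds from 10 mM DMSO stocks were incubated in 0.1 N HCl or 1× PBS pH 7.4 (1.0% DMSO, 100 μM maximum theoretical) for 24 h at 24.2-27.5 °C, then vacuum filtered. Filtrates were quantified in μM by chemiluminescent nitrogen detection against a calibration curve, corrected for background nitrogen; values for adjacent ring-nitrogen compounds were raised ~25%.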

HBV = test: Antiviral (HBV) assay in primary human hepatocytes (PHHs); type: cell-based; settings: Hepatitis B virus, Hepatocyte, 120 h; HBV (GTD) infected PHH, 5 days, HBV DNA in supernatant; average of at least two independent experiments
Protocol: Example 106: Antiviral (HBV) Assay in Primary Human Hepatocytes (PHHs)
Cryopreserved PHH were thawed, recovered by centrifugation at 100 g in cryopreserved hepatocyte recovery medium (Thermo Fisher Scientific; CM7500), and plated on collagen matrix (Life Technologies; Catalog Number: R-011-K) coated T225 flasks (Corning CellBIND, Catalog Number: 3293) at a density of 25E6 live cells in 60 mls media. Cells were plated in William's E medium (Thermo Fisher Scientific; A1217601) supplemented with 3.6% hepatocyte thawing and plating supplement (Thermo Fisher Scientific, A15563), 5% fetal bovine serum (Thermo Fisher Scientific; 16000-036), 1 μM dexamethasone (Thermo Fisher Scientific, A15563), and 0.2% Torpedo antibiotic mix (Bioreclamation; Z990008). The plating medium was removed after 14 hours and the cells were subsequently cultured in maintenance medium: William's E medium supplemented with 4% hepatocyte maintenance supplement (Thermo Fisher Scientific; AI15564), 2% fetal bovine serum, 0.1μ M dexamethasone, 1.5% DMSO (Sigma-Aldrich, St. Louis, MO; D8418), and 0.2% Torpedo antibiotic mix. Approximately 24 hours after plating, PHH were infected with HepAD38-derived GTD virus at 500 viral genome equivalents per cell in PHH maintenance medium supplemented with 4% PEG 8000 (Promega, Madison, WI; V3011). Infections were allowed to proceed for 24 hours before removing the remaining extracellular virions by washing with maintenance medium three times. After allowing viral infection to take place for 3 days, the infected cells were harvested from the flasks by trypsinization (0.25X in PBS without Ca/Mg, 25 minutes) following a 4 minute 0.5X Versene (Life Technologies Catalog Number: 15040-066) treatment and two PBS washes. Trypsinized cells were inactivated in 10% FBS containing maintenance medium, centrifuged 6 minutes at 50 g, resuspended in hepatocyte maintenance medium, filtered through a 40 uM cell strainer, and adjusted to a density of 0.25E6 cells/ml. Infected cells were seeded on 384 well collagen coated plates (Greiner, Austria) at a density of 20,000 cells/well containing serially diluted compounds of the present disclosure or DMSO (0.5%) in a final volume of 80 μl. The assay plates were incubated for a period of 5 days and the antiviral activity of the test compounds were assayed by detecting the presence of HBV DNA in the culture supernatant using the QuantiGene™ 2.0 nucleic acid quantification kit (Affymetrix, Santa Clara, CA).

In the case of C[C@H](Cn1cnc2c(N)ncnc21)OCP(=O)(NC(C)(C)C(=O)OCC12CCC(CC1)CC2)NC(C)(C)C(=O)OCC12CCC(CC1)CC2 [Example 48, Bis(bicyclo[2.2.2]octan-1-ylmethyl) 2,2′-(((((1-(6-amino-9H-purin-9-yl)propan-2-yl)oxy)methyl)phosphoryl)bis(azanediyl))(R)-bis(2-methylpropanoate)], the CC50 at 5 days [1] is reported as 3340 nM, the CC50 at 5 days [2] is reported as over 100 nM and the solubility kinetic at 24 h [3] is reported as under 1 µg/mL. The EC50 (HBV) was 4.63 nM.

C[C@H](Cn1cnc2c(N)ncnc21)OCP(=O)(NC(C)(C)C(=O)O[C@@H](C)C1CCCCC1)NC(C)(C)C(=O)O[C@@H](C)C1CCCCC1 [Example 56, Bis((S)-1-cyclohexylethyl) 2,2′-((((((R)-1-(6-amino-9H-purin-9-yl)propan-2-yl)oxy)methyl)phosphoryl)bis(azanediyl))bis(2-methylpropanoate)] gave a CC50 at 5 days [1] of 9650 nM, a CC50 at 5 days [2] of over 100 nM and a solubility kinetic at 24 h [3] of 5 µg/mL (≈ 7.38 µM). The EC50 (HBV) was 3.99 nM.

For C[C@H](Cn1cnc2c(N)ncnc21)OCP(=O)(NC(C)(C)C(=O)O[C@H]1C[C@H](C(C)(C)C)C1)NC(C)(C)C(=O)O[C@H]1C[C@H](C(C)(C)C)C1 [Example 52, Bis((1R,3R)-3-(tert-butyl)cyclobutyl) 2,2′-((((((R)-1-(6-amino-9H-purin-9-yl)propan-2-yl)oxy)methyl)phosphoryl)bis(azanediyl))bis(2-methylpropanoate)], the CC50 at 5 days [1] was 7190 nM, the CC50 at 5 days [2] was over 100 nM and the solubility kinetic at 24 h [3] was under 1 µg/mL. The EC50 (HBV) was 14.4 nM.

CCCCCCOC(=O)C(C)(C)NP(=O)(CO[C@H](C)Cn1cnc2c(=N)n(Cc3oc(=O)oc3C)cnc21)NC(C)(C)C(=O)OCCCCCC [Example 83, Dihexyl 2,2′-(((((1-(6-imino-1-((5-methyl-2-oxo-1,3-dioxol-4-yl)methyl)-1,6-dihydro-9H-purin-9-yl)propan-2-yl)oxy)methyl)phosphoryl)bis(azanediyl))(R)-bis(2-methylpropanoate)] gave a CC50 at 5 days [1] of 6600 nM, a CC50 at 5 days [2] of over 100 nM and a solubility kinetic at 24 h [3] of 33 µg/mL (≈ 44.7 µM). It also gave an EC50 (HBV) of 2.14 nM.

C[C@H](Cn1cnc2c(N)ncnc21)OCP(=O)(NC(C)(C)C(=O)OCC1CC2(C1)CC1(CCC1)C2)NC(C)(C)C(=O)OCC1CC2(C1)CC1(CCC1)C2 [Example 57, Bis(dispiro[3.1.3^6.1^4]decan-2-ylmethyl) 2,2′-(((((1-(6-amino-9H-purin-9-yl)propan-2-yl)oxy)methyl)phosphoryl)bis(azanediyl))(R)-bis(2-methylpropanoate)] showed a CC50 at 5 days [1] of 6620 nM, a CC50 at 5 days [2] of over 100 nM and a solubility kinetic at 24 h [3] of under 1 µg/mL. The EC50 (HBV) was 4.71 nM.

C[C@H](Cn1cnc2c(N)ncnc21)OCP(=O)(NC(C)(C)C(=O)OCC12CC3CC(CC(C3)C1)C2)NC(C)(C)C(=O)OCC12CC3CC(CC(C3)C1)C2 [Example 59, Bis(((1S,3S)-adamantan-1-yl)methyl) 2,2′-((((((R)-1-(6-amino-9H-purin-9-yl)propan-2-yl)oxy)methyl)phosphoryl)bis(azanediyl))bis(2-methylpropanoate)] showed a CC50 at 5 days [1] of 6960 nM, a CC50 at 5 days [2] of over 100 nM and a solubility kinetic at 24 h [3] of under 1 µg/mL. The EC50 (HBV) was 6.53 nM.

C[C@H](Cn1cnc2c(N)ncnc21)OCP(=O)(NC(C)(C)C(=O)OCC1CCCCCC1)NC(C)(C)C(=O)OCC1CCCCCC1 [Example 89, Bis(cycloheptylmethyl) 2,2′-(((((1-(6-amino-9H-purin-9-yl)propan-2-yl)oxy)methyl)phosphoryl)bis(azanediyl))(R)-bis(2-methylpropanoate)] showed a CC50 at 5 days [1] of 5100 nM, a CC50 at 5 days [2] of over 100 nM and an EC50 (HBV) of 2.42 nM.

CCC(C)(C)CCOC(=O)C(C)(C)NP(=O)(CO[C@H](C)Cn1cnc2c(N)ncnc21)NC(C)(C)C(=O)OCCC(C)(C)CC [Example 54, Bis(3,3-dimethylpentyl) 2,2′-(((((1-(6-amino-9H-purin-9-yl)propan-2-yl)oxy)methyl)phosphoryl)bis(azanediyl))(R)-bis(2-methylpropanoate)] gave a CC50 at 5 days [1] of 6720 nM, a CC50 at 5 days [2] of over 100 nM and a solubility kinetic at 24 h [3] of 12 µg/mL (≈ 18.4 µM). It also gave an EC50 (HBV) of 4.45 nM.

Compound C[C@H](Cn1cnc2c(N)ncnc21)OCP(=O)(NC(C)(C)C(=O)OCC1CCC2(CCC2)CC1)NC(C)(C)C(=O)OCC1CCC2(CCC2)CC1 (stereo partly drawn) [Example 53, Bis(spiro[3.5]nonan-7-ylmethyl) 2,2′-(((((1-(6-amino-9H-purin-9-yl)propan-2-yl)oxy)methyl)phosphoryl)bis(azanediyl))(R)-bis(2-methylpropanoate)] has a CC50 at 5 days [1] of 7550 nM, a CC50 at 5 days [2] of over 100 nM and a solubility kinetic at 24 h [3] of under 1 µg/mL. For the same compound, the EC50 (HBV) was 8.38 nM.

With CCCCCCOC(=O)C(C)(C)NP(=O)(CO[C@H](C)Cn1cnc2c(NC(=O)OCc3oc(=O)oc3C)ncnc21)NC(C)(C)C(=O)OCCCCCC [Example 33, Dihexyl 2,2′-(((((1-(6-((((5-methyl-2-oxo-1,3-dioxol-4-yl)methoxy)carbonyl)amino)-9H-purin-9-yl)propan-2-yl)oxy)methyl)phosphoryl)bis(azanediyl))(R)-bis(2-methylpropanoate)] the CC50 at 5 days [1] was 6620 nM, the CC50 at 5 days [2] was over 100 nM and the solubility kinetic at 24 h [3] was 14 µg/mL (≈ 17.9 µM). It also gave an EC50 (HBV) of 2.62 nM.

CCC(CC)COC(=O)C(C)(C)NP(=O)(CO[C@H](C)Cn1cnc2c(N)ncnc21)NC(C)(C)C(=O)OCC(CC)CC [Example 2, Bis(2-ethylbutyl) 2,2′-(((((1-(6-amino-9H-purin-9-yl)propan-2-yl)oxy)methyl)phosphoryl)bis(azanediyl))(R)-bis(2-methylpropanoate)] gave a CC50 at 5 days [1] of 6090 nM, a CC50 at 5 days [2] of over 1000 nM and a solubility kinetic at 24 h [3] of 65 µg/mL (≈ 104 µM). It also gave an EC50 (HBV) of 0.69 nM.

In the case of CCCCCCCCOC(=O)C(C)(C)NP(=O)(CO[C@H](C)Cn1cnc2c(N)ncnc21)NC(C)(C)C(=O)OCCCCCCCC [Example 39, Dioctyl 2,2′-(((((1-(6-amino-9H-purin-9-yl)propan-2-yl)oxy)methyl)phosphoryl)bis(azanediyl))(R)-bis(2-methylpropanoate)], the CC50 at 5 days [1] is reported as 7270 nM, the CC50 at 5 days [2] is reported as over 100 nM and the EC50 (HBV) is reported as 4.5 nM.

Compound C[C@H](Cn1cnc2c(N)ncnc21)OCP(=O)(NC(C)(C)C(=O)OC[C@H]1CC[C@H](C)CC1)NC(C)(C)C(=O)OC[C@H]1CC[C@H](C)CC1 [Example 91, Bis((trans-4-methylcyclohexyl)methyl) 2,2′-((((((R)-1-(6-amino-9H-purin-9-yl)propan-2-yl)oxy)methyl)phosphoryl)bis(azanediyl))bis(2-methylpropanoate)] has a CC50 at 5 days [1] of 4920 nM, a CC50 at 5 days [2] of over 100 nM and an EC50 (HBV) of 3.76 nM.
